Experiment [1] relates to α-chymotrypsin. Description: Thermodynamic parameters of complexes with α-chymotrypsin. The class given is binding. Particulars: complex with α-chymotrypsin, SPR. As to the method: The magnitudes of free energy change (∆G) of the complexes differed slightly from the same complexes of HCRG1 and HCRG2 and were lower than for the InhVJ ones.
The study of the interaction of serine proteinases with rHCIQ2c1 and rHCIQ4c7 was performed on SPR biosensor Biacore 3000 (GE Healthcare, USA) running under the program “Biacore 3000 Control Software v.1.0”. The evaluation of data was carried out using “Biacore Evaluation v.4.1”. Peptides were covalent immobilized on carboxymethylated surface of the Biacore CM4 sensor chip (GE Healthcare, USA) activated by EDC/NHS (N-hydroxysuccinimide/1-ethyl-3-(3-dimethylaminopropyl)carbodiimide hydrochloride) mixture by the injection of peptide solution (100 µg/ml) in 10 mM sodium acetate (pH 5.5) during 10 min with flow rate 5 µl/min. Quantities of immobilized peptides were 970 RU (resonance units, 1 RU corresponds 1 pg peptide) for rHCIQ2c1 and 460 RU for rHCIQ4c7. In all of the experiments, the flow cell 1 (Fc1) without the immobilized polypeptides was considered as the reference cell for the correction of the signal responses. HBS (HEPES buffered saline-NaCl): 0.15 M NaCl, 0.01 M HEPES, pH 7.4 (cat. no. BR-1003-69, GE Healthcare, USA) was used as the running buffer for the SPR assays. Protease solutions at concentrations from 1 nM to 5 μM were passed through measuring and control biosensor cells at 25 °C during 5 min with a flow rate 5 µl/min. Further complex breakdown was recorded during at most 10 min. After each cycle of SPR measurement, the sensing surface was regenerated by the injection of 50 mM NaOH for 0.5 min at a flow rate of 50 μl/min. Changes in Gibbs free energy (ΔG) at 25 °C were calculated by the following equation:1 ΔG=RTlnKD, where KD is the dissociation constant. Changes in enthalpy (ΔH) and entropic term (−TΔS) were calculated from the linear equation:2 ΔG=ΔH−TΔS, using the liner approximation of temperature dependence of ΔG (Van’t Hoff diagram).

The subject of experiment [2] is murine neuroblastoma Neuro2a cells. Briefly: Intracellular ROS formation level (H2DCF-DA). The class given is cell-based. On the procedure: We estimated whether rHCIQ2c1 is able to inhibit reactive oxygen species (ROS) production. After incubation of Neuro2a cells with rHCIQ2c1 (up to 10 µM) and 6-OHDA (25 µM), ROS content was evaluated by measurement of dichlorofluorescin intensity.
The intracellular ROS level was detected using 2,7-dichlordihydrofluorescein diacetate (H2DCF-DA) solution (Molecular Probes, final concentration 10 µM). In this study, mouse neuroblastoma Neuro2a cells seeded on 96-well plates were washed twice with serum-free DMEM and thereafter incubated for 1 h in serum-free MEM medium in the presence of compounds in concentrations from 10 pM to 10 µM. Cell were treated with 6-OHDA (25 μM) for 30 min at 37 °C with 5% CO2. Followed by treatment with 6-OHDA, the cells were washed once with PBS. After washing with serum-free DMEM medium, the cells were loaded with H2DCF-DA for 30 min. The intensity of dichlorofluorescin fluorescence was measured with plate reader PHERAstar FS (BMG Labtech, Germany) at λex = 485 nm and λem = 518 nm. The cytoprotective effect of peptides and the increase in cell viability under their action was calculated as a percentage, taking the cell viability treated with 6-OHDA as 100%.

For experiment [3], the target named is trypsin. Description: Trypsin inhibitory activity (BAPNA, Dixon). The class given is biochemical. The conditions noted are these: BAPNA 0.6 and 1.2 mM, Dixon method; trypsin 208 nM; peptide 0–26.6 µM (rHCIQ2c1), 0–24 µM (rHCIQ4c7); three parallel experiments; error limits 0.1–0.5%. As to the method: The trypsin inhibitory activity of HCIQ peptides was estimated according to the standard procedure using N-α-benzoyl-D,L-arginine p-nitroanilide (BAPNA) as a substrate. The trypsin inhibition constants of rHCIQ2c1 and rHCIQ4c7 were determined by the method of Dixon[74] using substrate (BAPNA) concentrations of 0.6 and 1.2 mM. The trypsin concentration in the reaction mixture was 208 nM. The range of peptide concentrations was 0–26.6 µM for rHCIQ2c1 and 0–24 µM for rHCIQ4c7. The constants (Ki) were calculated based on the results of three parallel experiments. Computational error limits were in the range of 0.1–0.5%.

We go through 2 substances from PMC7060258 (Scientific Reports, 2020).

No end group written: not given here.

For “rHCIQ2c1: recombinant Kunitz-peptide of Heteractis crispa, most prevalent isoform, mature peptide 58 aa, expressed in E. coli (IQGNICSEPKKVGRCRGSFPRFYFDSETGKCTPFIYGGCGGNGNNFETLHACRAICRA; ends and bridges not checked; cysteine pairing not given here)”, in experiment [1] (10–40 °С, Van't Hoff diagram), the “T∆S, entropic term” value amounted to 63.27 kJ/mol and the “∆H, enthalpy change” value is listed as 19.58 kJ/mol. Moreover, the “∆G, Gibbs energy change” value in experiment [1] (25 °C, ΔG=RTlnKD) is reported as “–43.70 kJ/mol”. Also, the “Reduction of ROS production” value in experiment [2] (0.001–0.01 µM peptide, pretreatment 1 h, 6-OHDA 25 µM 30 min, dichlorofluorescin fluorescence) came to 34%. For the same substance, the “Concentration dependence of ROS level” value in experiment [2] (up to 10 µM peptide, 6-OHDA 25 µM) is “An increase in ROS formation when the concentration of rHCIQ2c1 increases from 0.01 to 1 µM, and its decrease again at 10 µM”.

For the substance “rHCIQ4c7: recombinant Kunitz-peptide of Heteractis crispa, isoform with the rare substitution Gly17Glu”, the Ki – broadly, the dissociation constant of the complex between target and ligand, obtained from inhibition or displacement – in experiment [3] stood at 190 nM.
